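In this assay, cells in 96-well plates receive the compound at five concentrations for 48 hours. Endpoints are linearly interpolated between the surrounding concentrations. At the GI50, growth is halved.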 Activity calls are given as the source filed them. No stated cut-off is given here; in the data, active = GI50 up to about 1.1 µM and inactive = higher. Peptide text beside a SMILES is read from it. * marks the point of attachment. Trt = c1ccc(C(c2ccccc2)(c2ccccc2)*)cc1; Cbz = O=C(OCc1ccccc1)*
Key:
Assay in all cases: inhibition of tumour cell growth, NCI panel, 48 h
UACC-62 = system: UACC-62
U-251 = system: U-251
RXF 393 = system: RXF 393
SW-620 = system: SW-620
DU-145 = system: DU-145
MCF7 = system: MCF7
PC-3 = system: PC-3
UO-31 = system: UO-31
HT-29 = system: HT-29
OVCAR-8 = system: OVCAR-8
SK-MEL-28 = system: SK-MEL-28
HCC 2998 = system: HCC 2998
CCRF-CEM = system: CCRF-CEM
LOX IMVI = system: LOX IMVI
SK-OV-3 = system: SK-OV-3
HCT-116 = system: HCT-116
SF-295 = system: SF-295
NCI/ADR-RES = system: NCI/ADR-RES
MDA-MB-231 = system: MDA-MB-231
OVCAR-5 = system: OVCAR-5
NCI-H226 = system: NCI-H226
MOLT-4 = system: MOLT-4
ACHN = system: ACHN
HCT-15 = system: HCT-15
MDA-N = system: MDA-N
M14 = system: M14
HL-60 = system: HL-60
786-0 = system: 786-0
SK-MEL-5 = system: SK-MEL-5
SK-MEL-2 = system: SK-MEL-2
K562 = system: K562
KM12 = system: KM12
OVCAR-4 = system: OVCAR-4
UACC-257 = system: UACC-257
RPMI-8226 = system: RPMI-8226
A549 = system: A549
MDA-MB-435 = system: MDA-MB-435
CAKI-1 = system: CAKI-1
SR = system: SR
SF-539 = system: SF-539
TK-10 = system: TK-10
SNB-19 = system: SNB-19
SN12C = system: SN12C
SF-268 = system: SF-268
HOP-92 = system: HOP-92
NCI-H23 = system: NCI-H23
A498 = system: A498
NCI-H460 = system: NCI-H460
COLO 205 = system: COLO 205
Malme-3M = system: Malme-3M
Hs-578T = system: Hs-578T
HOP-62 = system: HOP-62
EKVX = system: EKVX
OVCAR-3 = system: OVCAR-3
SNB-75 = system: SNB-75
IGROV-1 = system: IGROV-1
NCI-H522 = system: NCI-H522
T47D = system: T47D

Measured: GI50

c1cc2nnnn2nc1N1CCCC1
inactive: UACC-62 > 100 µM | U-251 > 100 µM | RXF 393 > 100 µM | SW-620 > 100 µM | DU-145 > 100 µM | MCF7 > 100 µM | PC-3 > 100 µM | UO-31 > 100 µM | HT-29 > 100 µM | OVCAR-8 > 100 µM | SK-MEL-28 > 100 µM | HCC 2998 > 100 µM | CCRF-CEM > 100 µM | LOX IMVI > 100 µM | SK-OV-3 > 100 µM | HCT-116 > 100 µM | SF-295 > 100 µM | NCI/ADR-RES > 100 µM | MDA-MB-231 > 100 µM | OVCAR-5 > 100 µM | NCI-H226 > 100 µM | MOLT-4 > 100 µM | ACHN > 100 µM | MDA-N > 100 µM | M14 > 100 µM | HL-60 > 100 µM | 786-0 > 100 µM | SK-MEL-5 > 100 µM | SK-MEL-2 > 100 µM | K562 > 100 µM | KM12 > 100 µM | OVCAR-4 > 100 µM | UACC-257 > 100 µM | RPMI-8226 > 100 µM | A549 > 100 µM | MDA-MB-435 > 100 µM | CAKI-1 > 100 µM | SR > 100 µM | SF-539 > 100 µM | TK-10 > 100 µM | SNB-19 > 100 µM | SN12C > 100 µM | SF-268 > 100 µM | HOP-92 > 100 µM | NCI-H23 > 100 µM | A498 > 100 µM | NCI-H460 > 100 µM | COLO 205 > 100 µM
> 100 µM: HCT-15

COC(=O)C(CO)NC(=O)C(CSC(c1ccccc1)(c1ccccc1)c1ccccc1)NC(=O)OCc1ccccc1 (centres undefined) (Cbz-Cys(Trt)-Ser-OMe; configuration not given here)
inactive: UACC-62 12.1 µM | Malme-3M 14.5 µM | U-251 16.7 µM | RXF 393 8.91 µM | SW-620 15.5 µM | DU-145 19.1 µM | MCF7 14.8 µM | PC-3 12.3 µM | Hs-578T 18.5 µM | UO-31 14.5 µM | HT-29 11.4 µM | OVCAR-8 14.5 µM | SK-MEL-28 17 µM | HOP-62 17.3 µM | HCC 2998 14.9 µM | LOX IMVI 15.7 µM | EKVX 16 µM | SK-OV-3 24.6 µM | HCT-116 12.3 µM | SF-295 17.1 µM | NCI/ADR-RES 16.8 µM | OVCAR-3 13.6 µM | MDA-MB-231 13.8 µM | OVCAR-5 17.7 µM | NCI-H226 12.2 µM | ACHN 21.2 µM | SNB-75 17.6 µM | IGROV-1 16.8 µM | M14 19.4 µM | HL-60 5.75 µM | 786-0 20.9 µM | SK-MEL-5 15.1 µM | SK-MEL-2 16.9 µM | NCI-H522 15.5 µM | K562 15.3 µM | KM12 16.1 µM | OVCAR-4 20.6 µM | T47D 20.7 µM | A549 13.4 µM | MDA-MB-435 15.2 µM | CAKI-1 16.6 µM | SF-539 12.1 µM | TK-10 24.5 µM | SNB-19 19.5 µM | SN12C 13.3 µM | SF-268 17.7 µM | HOP-92 15.2 µM | NCI-H23 17.9 µM | NCI-H460 8.81 µM | COLO 205 15.6 µM
19.2 µM: HCT-15
active: CCRF-CEM 0.0398 µM | MOLT-4 0.61 µM | RPMI-8226 0.36 µM | SR 0.158 µM

Source: ChEMBL document CHEMBL1201862, “PubChem BioAssay data set” (2004)
